From patent EP1379634B1 (THE UNIVERSITY OF GEORGIA RESEARCH FOUNDATION, INC., priority 2001, dated 2002) come the findings set out here.

Series [1] relates to purified Taenia solium cysteine protease. In words: Substrate cleavage screen of AFC-linked peptides (Step II), purified protease. Format: biochemical. As to conditions: 0.4 M Citrate, pH 4.9, 0.01 M cysteine, 18 h, 37 °C. On the procedure: In this step, the most efficacious substrate for detection of the cysteine protease (high Kcat substrate) was determined in vitro along with those substrates which were not well cleaved (low kcat substrates). From this point forward, the following conditions refer to all assays: "assay buffer" refers to 0.4 M Citrate, pH 4.9 (the pH optima of the protease). Incubation time was 18 hours at 37°C. These conditions were determined by our preliminary data to be best for kinetic evaluation of the protease. […] The experiments were conducted in 6X50 […] Borosilicate mini-culture tubes (Fisher Scientific), and a fluorometer (Turner) was employed for detection of AFC cleavage.
Since the full 8,420 amino acid possibilities for cleavage were not available, representative substrates were employed. […] In order to choose this subset, representative amino acids (i.e., selected from the categories of acidic, basic, nonpolar, uncharged) were chosen so as to create as many categories of motifs as feasible for the P3-P1 positions with a set of 67 small peptides (see lists at Fig. 4a and Fig. 4b). The target cysteine protease from Taenia solium was isolated using the purification methods described previously in the patent WO 00/63350.
Approximately 1 ug (or a proteolytically detectable amount) of the purified target cysteine protease was incubated individually, with 1 ug of each of the available substrates in 500 uL of assay buffer. During this setup, the substrate was pre-incubated in the assay buffer for a short period of time (20 minutes) in order to reach an equilibrated status before the addition of the protease. Cleavage assessments were based upon the property of the protease to cleave synthetic peptide substrates linked at the C-terminus to 7-Amino-4-Trifluoromethyl Coumarin (AFC) as previously described. AFC linked tripeptides, dipeptides, and monopeptides, (with a variety of permutations at P3-P1) were available from Enzyme Systems Products (Livermore, CA), and were used as the source of the subset. Following incubation of enzyme preparations overnight (18 h, 37 °C) with peptide in assay buffer (Citrate, pH 4.9, supplemented with 0.01 M cysteine), free AFC concentrations were measured fluorometrically (excitation 405 nm, emission 505 nm). The proteolytic cleavage released the AFC group, which was measurable as a free molecule by a standard fluorometer and converted into molar quantities, based upon a previously established standard curve. The simplicity of AFC detection by the fluorometer was a key factor which expedited and simplified the procedures.
In the assay, 1 ug of the purified Taenia cysteine protease was added to a saturating amount of Z-Phe-Arg-AFC (4X10^-5 M) in assay buffer. The experiment was conducted in triplicate and repeated at least 5 times until we were certain that variability in AFC cleavage was not statistically significant.
Vmax for the cleavage of substrates by the purified target protease and Vmax for substrates cleaved by the crude mix protease were each calculated using conventional kinetic modeling calculations already described in the art.

Series [2] shares this test system. As to the kind of experiment: Competitor assay of low Vmax substrates (vehicles) against high Vmax substrate cocktails (Step III), purified protease. Format: biochemical. Conditions: vehicle 8X10^-6 M; for inhibition with the 1.4% cocktail: 1.4% cocktail (Z-FR-AFC 1X10^-6 M); for inhibition with the final cocktail (7.4%): 7.4% cocktail (five high Vmax substrates, 1X10^-6 M each); for V Value: V = P * M, P inhibition with first (1.4%) cocktail, M with last (7.4%) cocktail, each cocktail substrate 1X10^-6 M. How it is done: The top 1.4% of substrates (out of 67) in the full panel of substrates with the highest Vmax values were chosen to compose a "TOP 1.4% cocktail". (We employed "Vmax" here although Kcat could also be used). Due to the lower number of substrates, a percentage was not chosen for the "BOTTOM %" substrates. Alternately, all substrates which were not cleaved as determined by a value of 10 uM/hr or less, were chosen to be tested in this step for competitive ability. Hereinafter the term "vehicle" will represent low Vmax substrates that were capable of inhibiting cleavage of the percent cocktails. In this instance, we tested for "vehicles" which inhibited cleavage of the TOP 1.4% cocktail (they were delivered into the active site). Based upon our results from Step II, the top 1.4% cocktail was composed of Z-Phe-Arg-AFC, the highest cleaved substrate.
The experiment began with a competitor test between the noncleaved low Vmax substrates and the highest Vmax substrate, Z-Phe-Arg-AFC. Concentrations were varied between the low Vmax substrate and Z-Phe-Arg-AFC, as described above under "refinement of assay" until a relative inhibition profile was obtained.
The mixture was allowed to equilibrate for a period of 30 minutes. Finally, active purified enzyme was added to the tubes at a concentration that was always 50 times less than the concentration of the high and low Vmax substrates, respectively, in order to insure saturation conditions. This concentration varied from purification to purification and the amount added depended upon the yield and specific activity of the purified protease.
Positive controls were set up in a manner similar to that described for test controls, except that solvent was added in substitution for the low Vmax substrate (in a volume equal to the low Vmax volume addition). All of the substrates could be dissolved in dimethylsulfoxide (DMSO), and therefore, this was the solvent of choice. Negative controls were set up by adding the low Vmax and the high Vmax substrate in a tube without the protease. All potential non-proteolytic induced liberation of AFC was therefore controlled for in this tube (a feature which also monitored stability of the AFC substrates, since these substrates will freely liberate AFC when unstable). A tube set was established for this negative control.
All controls were set up in triplicate, and experiments were repeated a minimum of five times. The assays were incubated at 37°C, for 18 hours overnight.
Percent inhibition was calculated as: %Inhibition = ((AFC positive for "Y"−AFC negative for "Y")−(AFC test−AFC negative for "Y"))/(AFC positive for "Y"−AFC negative for "Y") × 100 [formula]
A 2.9% cocktail of the high Vmax substrates was made. This was composed of Z-FR-AFC and the second most cleaved substrate, Z-FAR-AFC. The vehicles promoted from the initial screenings above were again tested for competitive inhibition ability with the new cocktails. Their concentrations were set identically to those which were "fixed" in the previous protocols. In other words, 8X10^-6 M of the vehicle was added to the culture tube with 1X10^-6 M of Z-FR-AFC and 1X10^-6 M of Z-FAR-AFC. Active protease was added last at a concentration that was 50 times less than the concentration of the high Vmax substrate (to ensure saturating conditions).
In similar experimental fashion, a 4.4%, 5.9%, and 7.4% cocktail were tested with each of the promising vehicles. Each increase in the percentage represented an increase by an additional high Vmax substrate. Each of the individual components in the cocktail were added at 1X10^-6 M each, to 8X10^-6 M of the vehicle. The composition of the cocktails was as follows: 4.4% cocktail: Z-FR-AFC, Z-FAR-AFC, and Z-AAK-AFC (third highest cleaved substrate); 5.9% cocktail: Z-FR-AFC, Z-FAR-AFC, Z-AAK-AFC, and AP-AFC (fourth highest cleaved substrate); 7.4% cocktail: […], Z-FAR-AFC, Z-AAK-AFC, AP-AFC, and Z-VLR-AFC. […]

The test system of the next series is Taenia solium crude mix. In words: Competitor assay of vehicles against high Vmax substrate cocktails (Step III), crude mix. Format: biochemical. The text has this:
Step III for a crude mix proceeds as it would for a purified protease, except that Vm is used instead of kcat.
One of the most intriguing findings in this experiment was that a highly similar inhibition pattern for the competitor assay resulted when the crude mix was employed as the source of the target protease. Although there were some variations in the effects of inhibitor dilution, the most highly ranked vehicles remained inhibitory consistently in comparison to the profile with the target protease. The relative profile and composition of the top tier of vehicles was identical. Z-LLL-AFC, Z-LLY-AFC, Mu-LY-AFC, Boc-VPR-AFC, Z-SY-AFC, Z-RR-AFC, Z-FLF-AFC, and Z-LGR-AFC consistently emerged as the top eight vehicles (Fig. 5b), respectively, based upon their V values (Table 2). […] It was notable that the three vehicles had very similar V values. […] As was mentioned, this vehicle along with Z-LLL-AFC and Z-LLY-AFC, were consistently the most inhibitory vehicles. The V values of the most inhibitory vehicle series are shown below in Table 2. Again, a clear break between the first and second tier vehicles is discernible for the V value. Table 2. Vehicles and V value rankings.

A further series has as its system BALB/c mice. As to the kind of experiment: Observation of side effects in treated mice. Format: in vivo. Conditions: long-term studies.

Residues, ends and D or L forms follow the SMILES beside them. *: point of attachment. AFC = O=c1cc(C(F)(F)F)c2ccc(N*)cc2o1; MeOSuc = COC(=O)CCC(=O)*; Cbz = O=C(OCc1ccccc1)*; Boc = CC(C)(C)OC(=O)*

Regarding Cbz-Leu-Gly-Arg-{AFC} [Z-LGR-AFC], the “cleavage of AFC substrate (Vmax)” value in series [1] is “noncleavable”. In series [2], the “inhibition with the 1.4% cocktail” value was “greater than 20%” and the “inhibition with the final cocktail (7.4%)” value (“inhibition … (7.4%)” for short) is given as “less than 20%”.

For the compound `CC(C)C[C@H](NC(=O)OCc1ccccc1)C(=O)N[C@@H](CCCNC(=N)N)C(=O)N[C@@H](CCCNC(=N)N)C(=O)Nc1ccc2c(C(F)(F)F)cc(=O)oc2c1` [Z-LRR-AFC] (Cbz-Leu-Arg-Arg-{AFC}), the “inhibition with the 1.4% cocktail” value in series [2] was “greater than 20%”.

Take `CC(C)[C@H](NC(=O)OC(C)(C)C)C(=O)N1CCC[C@H]1C(=O)N[C@@H](CCCNC(=N)N)C(=O)Nc1ccc2c(C(F)(F)F)cc(=O)oc2c1` [B-VPR-AFC, Boc-Val-Pro-Arg-AFC] (Boc-Val-Pro-Arg-{AFC}): the “cleavage of AFC substrate (Vmax)” value in series [1] is recorded as “noncleavable”. In addition, in series [2], the “inhibition … (7.4%)” value is listed as “less than 20%”. Besides, the “V Value” in series [2] (listed as B-VPR-AC) was determined as 0.120. In addition, in the series with Taenia solium crude mix, the Tier is on record as 2 (The second tier was composed of those vehicles that produced inhibition between 20-50% inhibition when in the presence of the 1.4% cocktail).

Consider `O=C(N[C@@H](CO)C(=O)N[C@@H](Cc1ccc(O)cc1)C(=O)Nc1ccc2c(C(F)(F)F)cc(=O)oc2c1)OCc1ccccc1` [Z-SY-AFC] (Cbz-Ser-Tyr-{AFC}), for which, in series [2], the “inhibition … (7.4%)” value is “less than 20%” and the “V Value” is 0.09. Moreover, the Tier in the series with Taenia solium crude mix was 2 (The second tier was composed of those vehicles that produced inhibition between 20-50% inhibition when in the presence of the 1.4% cocktail). Further, the “V Value” in the series on Taenia solium crude mix (V = P * M) is given as 0.09.

Consider `CC(C)CC(NC(=O)OCc1ccccc1)C(=O)NC(C=CS(=O)(=O)c1ccccc1)Cc1ccccc1` (stereo not drawn), for which, in the series with BALB/c mice, the “side effects in treated mice” value was “goiter and neurological problems”.

On to `N=C(N)NCCC[C@H](NC(=O)OCc1ccccc1)C(=O)N[C@@H](CCCNC(=N)N)C(=O)Nc1ccc2c(C(F)(F)F)cc(=O)oc2c1` [Z-RR-AFC] (Cbz-Arg-Arg-{AFC}), for which, in series [2], the “inhibition … (7.4%)” value is on record as “less than 20%” and the “V Value” is on record as 0.09. Also, the Tier in the series with Taenia solium crude mix is recorded as 2 (The second tier was composed of those vehicles that produced inhibition between 20-50% inhibition when in the presence of the 1.4% cocktail).

For `N[C@@H](CCC(=O)O)C(=O)N[C@@H](Cc1ccc(O)cc1)C(=O)Nc1ccc2c(C(F)(F)F)cc(=O)oc2c1` [EY-AFC] (H-Glu-Tyr-{AFC}), in series [1], the “cleavage of AFC substrate (Vmax)” value is on record as “not cleaved”.

Regarding `COC(=O)CCC(=O)N[C@@H](Cc1ccccc1)C(=O)N[C@@H](CC(C)C)C(=O)N[C@@H](Cc1ccccc1)C(=O)Nc1ccc2c(C(F)(F)F)cc(=O)oc2c1` [MeoSuc-FLF-AFC] (MeOSuc-Phe-Leu-Phe-{AFC}), the “cleavage of AFC substrate (Vmax)” value in series [1] was “not cleaved”.
